For experiment [1], the target named is T1, SGLT2 (Homo sapiens, UniProt P31639).
T1 construct: expressed in transfected cells
T1 sequence (P31639 1-672): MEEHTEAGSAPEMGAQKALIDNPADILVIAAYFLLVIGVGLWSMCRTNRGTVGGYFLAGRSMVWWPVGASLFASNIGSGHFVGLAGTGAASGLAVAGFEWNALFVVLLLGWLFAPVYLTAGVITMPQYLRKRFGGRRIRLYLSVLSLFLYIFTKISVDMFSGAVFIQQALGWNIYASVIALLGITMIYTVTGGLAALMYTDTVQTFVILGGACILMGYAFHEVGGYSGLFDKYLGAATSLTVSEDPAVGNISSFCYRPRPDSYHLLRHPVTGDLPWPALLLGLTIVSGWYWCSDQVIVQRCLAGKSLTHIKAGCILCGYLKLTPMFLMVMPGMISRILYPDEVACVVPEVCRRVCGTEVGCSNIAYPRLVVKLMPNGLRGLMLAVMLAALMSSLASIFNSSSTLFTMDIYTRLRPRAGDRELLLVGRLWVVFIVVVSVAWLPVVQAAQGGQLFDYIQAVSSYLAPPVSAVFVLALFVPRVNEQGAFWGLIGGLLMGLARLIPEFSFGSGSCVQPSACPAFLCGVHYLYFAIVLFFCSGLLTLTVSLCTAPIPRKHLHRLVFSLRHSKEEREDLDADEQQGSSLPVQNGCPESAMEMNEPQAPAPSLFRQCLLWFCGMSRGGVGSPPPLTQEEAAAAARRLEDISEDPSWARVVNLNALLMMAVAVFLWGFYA
In words: SGLT2 activity measurement: 14C-AMG uptake in BHK cells transfected with SGLT2. Type of experiment: cell-based. The following applies: AMG 2 mM, 37° C., 90 min. An outline of the steps:
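BHK21 cells stably expressing human SGLT2 took up 14C-AMG (added as 2 mM solution) ± compound for 90 min at 37 °C in Na+-containing HEPES/Tris buffer, pH 7.4. Uptake was measured by scintillation counting after lysis. Non-specific uptake was defined in sodium-free sucrose buffer.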

For experiment [2], the target named is T2, SGLT1 (Homo sapiens, UniProt P13866).
T2 construct: expressed in transfected cells
T2 sequence (P13866 1-664): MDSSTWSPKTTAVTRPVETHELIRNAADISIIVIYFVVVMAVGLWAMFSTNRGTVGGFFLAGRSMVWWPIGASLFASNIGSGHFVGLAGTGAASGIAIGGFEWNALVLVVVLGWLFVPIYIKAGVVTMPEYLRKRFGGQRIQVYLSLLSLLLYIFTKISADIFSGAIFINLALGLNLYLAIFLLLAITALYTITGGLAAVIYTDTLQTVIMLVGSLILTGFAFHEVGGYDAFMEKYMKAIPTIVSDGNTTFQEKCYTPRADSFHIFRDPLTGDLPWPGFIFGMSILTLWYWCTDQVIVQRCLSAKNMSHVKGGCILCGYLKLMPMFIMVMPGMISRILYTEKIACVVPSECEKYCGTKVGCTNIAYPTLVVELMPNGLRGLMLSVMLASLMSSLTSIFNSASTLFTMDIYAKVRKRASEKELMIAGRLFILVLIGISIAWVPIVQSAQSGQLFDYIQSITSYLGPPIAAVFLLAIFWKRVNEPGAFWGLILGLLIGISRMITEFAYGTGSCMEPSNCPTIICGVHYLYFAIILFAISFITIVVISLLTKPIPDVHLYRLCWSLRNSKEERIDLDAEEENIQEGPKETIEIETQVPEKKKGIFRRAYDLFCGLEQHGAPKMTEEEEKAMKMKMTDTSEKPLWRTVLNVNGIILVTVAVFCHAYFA
Kind of experiment: SGLT1 activity measurement: 14C-AMG uptake in BHK cells transfected with SGLT1. Particulars: AMG 50 μM, 37° C., 90 min. Type of experiment: cell-based. The gist of the method: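 BHK21 cells stably transfected with human SLC5A1 were incubated with 14C-AMG (added solution at 50 μM) ± compound for 90 min at 37 °C. The buffer was 140 mM NaCl, HEPES/Tris, pH 7.4. Lysed-cell radioactivity was counted by scintillation, and non-specific uptake was measured in sodium-free sucrose buffer.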

Usually IC50 stands for the concentration at which inhibition is half-maximal. Read a high IC50 as lower potency. As to `Cc1cccc(C)c1Nc1c(-c2c(C)cc(OC3COC(=O)O3)cc2OCC(N)=O)nc2ccc(F)cn12` (stereo not drawn) [Compound A190, 2-[2-(Aminocarbonylmethoxy)-4-(2-oxo-1,3-dioxolan-4-yloxy)-6-methylphenyl]-3-(2,6-dimethylphenylamino)-6-fluoroimidazo[1,2-a]-pyridine], the IC50 in experiment [1] was 10 to 1000 nM; in experiment [2] it was more than 10000 nM.

For `COc1cc(C)c(-c2nc3c(N)cccn3c2Nc2c(C)cccc2C)c(OCC(N)=O)c1` [Compound A191, 2-[2-(Aminocarbonylmethoxy)-4-methoxy-6-methylphenyl]-3-(2,6-dimethylphenylamino)-8-aminoimidazo[1,2-a]pyridine], the values for the IC50 in experiment [1] and in experiment [2] were 10 to 1000 nM and more than 10000 nM, respectively.

For the compound `CCc1cc(OC)cc(OCC(N)=O)c1-c1nc2c(N)cccn2c1Nc1c(C)cccc1C` [Compound A192, 2-[2-(Aminocarbonylmethoxy)-4-methoxy-6-ethylphenyl]-3-(2,6-dimethylphenylamino)-8-aminoimidazo[1,2-a]pyridine], the IC50 in experiment [1] is 10 to 1000 nM; in experiment [2], more than 10000 nM.

In the case of `CCc1cc(OC)cc(OCC(N)=O)c1-c1nc2c(O)cccn2c1Nc1c(C)cccc1C` [Compound A194, 2-[2-(Aminocarbonylmethoxy)-4-methoxy-6-ethylphenyl]-3-(2,6-dimethylphenylamino)-8-hydroxyimidazo[1,2-a]pyridine], the IC50 in experiment [1] is 1000 to 10000 nM; in experiment [2] it was more than 10000 nM.

As for `CCc1cc(OCCO)cc(OCC(N)=O)c1-c1nc2ccc(F)cn2c1Nc1c(C)cccc1C` [Compound A195, 2-[2-(Aminocarbonylmethoxy)-4-(2-hydroxy-ethoxy)-6-ethylphenyl]-3-(2,6-dimethylphenyl-amino)-6-fluoroimidazo[1,2-a]pyridine], the IC50 in experiment [1] is 10 to 1000 nM; in experiment [2] it was more than 10000 nM.

In the case of `CCOc1cc(CC)c(-c2nc3ccc(F)cn3c2Nc2c(C)cccc2C)c(OCC(N)=O)c1` [Compound A196, 2-[2-(Aminocarbonylmethoxy)-4-ethoxy-6-ethyl-phenyl]-3-(2,6-dimethylphenylamino)-6-fluoro-imidazo[1,2-a]pyridine], the IC50 in experiment [1] was 10 to 1000 nM; in experiment [2], more than 10000 nM.

On to `COc1cc(Cl)c(-c2nc3ccc(F)cn3c2Nc2c(C)cccc2C)c(OCC(N)=O)c1` [Compound A197, 2-[2-(Aminocarbonylmethoxy)-4-methoxy-6-chlorophenyl]-3-(2,6-dimethylphenylamino)-6-fluoroimidazo[1,2-a]pyridine], for which the IC50 was 10 to 1000 nM in experiment [1] and more than 10000 nM in experiment [2].

As for `CCc1cc(OC2COC(=O)O2)cc(OCC(N)=O)c1-c1nc2ccc(F)cn2c1Nc1c(C)cccc1C` (stereo not drawn) [Compound A198, 2-[2-(Aminocarbonylmethoxy)-4-(2-oxo-1,3-dioxolan-4-yloxy)-6-ethylphenyl]-3-(2,6-dimethyl-phenylamino)-6-fluoroimidazo[1,2-a]pyridine], the IC50 in experiment [1] lay in the range of 10 to 1000 nM; in experiment [2], 1000 to 10000 nM.

Consider `COc1cc(OC)c(-c2nc3ccc(F)cn3c2Nc2c(C)cccc2C)c(OCC(N)=O)c1` [Compound A199, 2-[2-(Aminocarbonylmethoxy)-4-methoxy-6-methoxyphenyl]-3-(2,6-dimethylphenylamino)-6-fluoroimidazo[1,2-a]pyridine], for which the IC50 is 10 to 1000 nM in experiment [1] and more than 10000 nM in experiment [2].

For `COc1cc(OC)c(-c2nc3ccc(F)cn3c2Nc2c(C)cc(F)cc2C)c(OCC(N)=O)c1` [Compound A200, 2-[2-(Aminocarbonylmethoxy)-4-methoxy-6-methoxyphenyl]-3-(2,6-dimethyl-4-fluorophenyl-amino)-6-fluoroimidazo[1,2-a]pyridine], the IC50 is 10 to 1000 nM in experiment [1] and more than 10000 nM in experiment [2].

Regarding `COc1cc(C)c(-c2nc3ccc(F)cn3c2Nc2c(C)cccc2C)c(OCC(N)=O)c1OC` [Compound A201, 2-[2-(Aminocarbonylmethoxy)-3,4-dimethoxy-6-methylphenyl]-3-(2,6-dimethylphenylamino)-6-fluoroimidazo[1,2-a]pyridine], the IC50 in experiment [1] is 1000 to 10000 nM; in experiment [2] it was more than 10000 nM.

For the compound `CCc1cc(OC)cc(OCC(N)=O)c1-c1nc2ccccn2c1Nc1c(C)cccc1C` [Compound A202, 2-[2-(Aminocarbonylmethoxy)-4-methoxy-6-ethylphenyl]-3-(2,6-dimethylphenylamino)-imidazo[1,2-a]pyridine], the IC50 in experiment [1] fell in the range of 10 to 1000 nM; in experiment [2], 1000 to 10000 nM.

With `CCc1cc(OC)cc(OCC(N)=O)c1-c1nc2ccccn2c1Nc1c(C)cc(F)cc1C` [Compound A203, 2-[2-(Aminocarbonylmethoxy)-4-methoxy-6-ethylphenyl]-3-(2,6-dimethyl-4-fluorophenyl-amino)imidazo[1,2-a]pyridine], the figures for the IC50 in experiment [1] and in experiment [2] were 10 to 1000 nM and 1000 to 10000 nM, respectively.

Regarding `COc1cc(C)c(-c2nc3ccc(F)cn3c2Nc2c(C)cccc2C)c(OCC(N)=O)c1` [Compound A204, 2-[2-(Aminocarbonylmethoxy)-4-methoxy-6-methylphenyl]-3-(2,6-dimethylphenylamino)-6-fluoroimidazo[1,2-a]pyridine], the IC50 in experiment [1] was 10 to 1000 nM; in experiment [2] it was 1000 to 10000 nM.

As to `COc1cc(C)c(-c2nc3ccc(F)cn3c2Nc2c(Cl)cccc2Cl)c(OCC(N)=O)c1` [Compound A205, 2-[2-(Aminocarbonylmethoxy)-4-methoxy-6-methylphenyl]-3-(2,6-dichlorophenylamino)-6-fluoroimidazo[1,2-a]pyridine], the IC50 in experiment [1] was 10 to 1000 nM; in experiment [2], 1000 to 10000 nM.

For `COc1cc(C)c(-c2nc3cccc(C)n3c2Nc2c(C)cccc2C)c(OCC(N)=O)c1` [Compound A206, 2-[2-(Aminocarbonylmethoxy)-4-methoxy-6-methylphenyl]-3-(2,6-dimethylphenylamino)-5-methylimidazo[1,2-a]pyridine], the IC50 in experiment [1] is 10 to 1000 nM; in experiment [2] it was more than 10000 nM.

For the compound `COc1cc(C)c(-c2nc3cccc(N)n3c2Nc2c(C)cccc2C)c(OCC(N)=O)c1` [Compound A207, 2-[2-(Aminocarbonylmethoxy)-4-methoxy-6-methylphenyl]-3-(2,6-dimethylphenylamino)-5-aminoimidazo[1,2-a]pyridine], the IC50 is 10 to 1000 nM in experiment [1] and more than 10000 nM in experiment [2].

For the compound `Cc1cccc(C)c1Nc1c(-c2c(C)cc(OCC(O)CO)cc2OCC(N)=O)nc2ccc(F)cn12` (stereo not drawn) [Compound A208, 2-[2-(Aminocarbonylmethoxy)-4-(2,3-dihydroxy-propoxy)-6-methylphenyl]-3-(2,6-dimethylphenyl-amino)-6-fluoroimidazo[1,2-a]pyridine], the IC50 in experiment [1] is 10 to 1000 nM; in experiment [2], more than 10000 nM.

Turning to `Cc1cccc(C)c1Nc1c(-c2ccccc2OCC(N)=O)nc2ccc(C#N)cn12` [Compound A209, 2-[2-(Aminocarbonylmethoxy)phenyl]-3-(2,6-dimethylphenylamino)-6-cyanoimidazo[1,2-a]-pyridine], the IC50 in experiment [1] is 1000 to 10000 nM; in experiment [2] it was more than 10000 nM.

Take `Cc1cccc(C)c1Nc1c(-c2ccccc2OCC(N)=O)nc2cc(C#N)ccn12` [Compound A210, 2-[2-(Aminocarbonylmethoxy)phenyl]-3-(2,6-dimethylphenylamino)-7-cyanoimidazo[1,2-a]-pyridine]: the IC50 in experiment [1] and in experiment [2] was more than 10000 nM in each case.

As to `COc1ccc(-c2nc3ccc(F)cn3c2Nc2c(C)cccc2C)c(OCC(N)=O)c1` [Compound A211, 2-[2-(Aminocarbonylmethoxy)-4-methoxy-phenyl]-3-(2,6-dimethylphenylamino)-6-fluoro-imidazo[1,2-a]pyridine], the IC50 was 10 to 1000 nM in experiment [1] and more than 10000 nM in experiment [2].

The values are drawn from patent publication US8258151B2, “3-aminoimidazo [1,2-A] pyridine derivatives as SGLT inhibitors” (Merck Patent GmbH, priority 2006, dated 2012).
